Test results: patent US5281710A, “Dynemicin analogs: synthesis, methods of preparation and use” (The Scripps Research Institute, priority 1992, dated 1994)
Read-outs that look alike come from different tables or passages of the source.

Key:
cancer cell lines = assay: cells; format: cell-based; settings: Average data obtained from 5~10 cell lines; read-out: IC50 (average)
Procedure: (§1) In addition to the screening already discussed, several of the before-described compounds and chimeras were screened against several or all of a panel of ten to twenty-five cancerous cell lines as target cells and seven "normal" cell preparations. This screening utilized a sulforhodamine B cytotoxidity assay as discussed below.
SULFORHODAMINE B CYTOTOXICITY ASSAY
a. Stock drug solutions were prepared by dissolving drug in the appropriate solvent (determined during chemical characterization studies) and sterile filtering the drug-solvent solution through a sterile 0.2μ filter unit. An aliquot was taken from each filtered drug solution and the O.D. was measured to determine the drug concentration.
f. Incubate (37° C., 5-10 percent CO2 in humidified incubator) plates for a total of 72 hours. Check plates at 24 hour intervals microscopically for signs of cytotoxicity.
(§2) IC50 values; i.e., the concentration of Compound required to kill one-half of the treated cells, were then calculated.
All other cells or cell lines were obtained from the American Type Culture Collection (ATCC) (all except CHO cells are human or mouse cancer cell lines as described by the ATC).
Tables 1 and 2 herein below provide average IC50 data from five to all ten of the above cancer cells lines for fused ring enediyne compounds disclosed herein. Those tables provide a generic structure and a description of the R group of that generic structure for each compound. Compound numbers as noted hereinbefore are also provided. Table 3 contains data for two fused-ring enediyne compounds (Compounds 47 and 120) as well as data for six chimers. Table 4 contains cancer cell and noraml cell cytotoxicity data for one select fused ring enediyne, Compound 153 against a number of "normal" cell preparations and tumor cell lines. Table 5 contains cancer cell and normal cell cytotoxicity data for another fused ring enediyne, Compound 250 against a similar panel of cells.

in vitro = format: cell-based, human; settings: human, nhdf cells; Table 7, NHDF; read-out: Cytotoxicity (IC50)
Procedure: as §1, §2
NHDF Normal human dermal fibroblasts

SK-Mel-28 melanoma cells = assay: Sulforhodamine B cytotoxicity, SK-Mel-28; format: cell-based; settings: Homo sapiens
Procedure: as §1, §2

[1] = test system: Ovcar-3 ovarian carcinoma cells; assay: Sulforhodamine B cytotoxicity, Ovcar-3; format: cell-based; settings: read-out: Cytotoxicity (IC50)
Procedure: as §1, §2

[2] = test system: HT-29 colon carcinoma cells; assay: Sulforhodamine B cytotoxicity, HT-29; format: cell-based; settings: Table 7, HT-29, read-out: Cytotoxicity (IC50)
Procedure: as §1, §2

[3] = test system: MCF-7 breast carcinoma cells; assay: Sulforhodamine B cytotoxicity, MCF-7; format: cell-based; settings: Table 7, MCF-7, read-out: Cytotoxicity (IC50)
Procedure: as §1, §2

[4] = test system: UCLA P-3 non-small cell lung carcinoma cells; assay: Sulforhodamine B cytotoxicity, UCLA-P3; format: cell-based, human; settings: read-out: Cytotoxicity (IC50)
Procedure: as §1, §2
UCLA P-3 Dr. D. Morton, University of California, […]

[5] = test system: H-322 lung carcinoma cells; assay: Sulforhodamine B cytotoxicity, H-322; format: cell-based; settings: NCI-H322; Table 7, H-322; read-out: Cytotoxicity (IC50)
Procedure: as §1, §2

[6] = test system: Capan-1 pancreatic carcinoma cells; assay: Sulforhodamine B cytotoxicity, Capan-1; format: cell-based
Procedure: as §1, §2

[7] = test system: HL-60 promyeocytic leukemia cells; assay: Sulforhodamine B cytotoxicity, HL-60; format: cell-based
Procedure: as §1, §2

[8] = test system: P-388 mouse lymphoma cells; assay: Sulforhodamine B cytotoxicity, P-388; format: cell-based; settings: Mus musculus, P388; Table 7, P-388; read-out: Cytotoxicity (IC50)
Procedure: as §1, §2

[9] = Sulforhodamine B cytotoxicity, CHO; format: cell-based, Chinese hamster; settings: hamster, cho cells; Table 7, CHO; read-out: Cytotoxicity (IC50)
Procedure: as §1, §2

φX174 Form I DNA = assay: φX174 supercoiled DNA cleavage, agarose gel; format: biochemical; settings: for DNA cleavage: 37° C.
Procedure: The ethereal solution of Compound 40 produced by the LiAlH4 reduction of Compound 21 (39 mg, 0.10 mmol) was evaporated in vacuo to dryness and the residue dissolved in THF (4 mL) to give a 25 mM solution of Compound 40, assuming complete conversion of Compound 21. […]
Thus, a vial containing a 50 micromolar per base pair solution […] of the same buffer solution and 2.0 microliters of a 5.0 millimolar ethanol solution of Compound 40.
[…] A 2.0 microliter portion of glycerol loading buffer solution containing bromothymol blue indicator was added to each vial. A 10 microliter aliquot was then drawn from each. Gel electrophoresis analysis of the aliquots was performed using a 1.0 percent agarose gel with ethidium bromide run at 115 volts for 1 hour. DNA cleavage was indicated by the formation of nicked relaxed circular DNA (form II) or linearized DNA (form III), which was detected by visual inspection of the gel under 310 nanometer ultraviolet light using ethidium bromide.

[10] = test system: MCF-7(ADR) breast carcinoma cells; assay: Sulforhodamine B cytotoxicity, MCF-7/ADR; format: cell-based; settings: Homo sapiens, NCI/ADR-RES, Adriamycin resistant
Procedure: as §1, §2

[11] = test system: P-388 leukemia cells in Balb/c mice; assay: In vivo P-388 leukemia in Balb/c mice; parameters: species or system mouse; settings: single dose
Procedure: In an in vivo study whose results are shown in FIG. 8, Balb/c mice were injected intra-peritoneally with 10^6 P-388 leukemia cells per mouse (the cells were suspended in 100 μl RPMI medium) on day zero. Therapy was started on day 1 by injecting each group of four animals with the indicated dose of Compound 45, which was administered only once in this assay. The course of therapy was followed by tumor-induced weight change in the animals and by recording death incidents (arrows). […] At the dose of 25 mg/kg Compound 45, the increase in life span over the control group was 175 percent (therapeutic group/control group).

[12] = Lethal dose / toxicity in mice; format: in vivo, mouse
[13] = test system: MOLT-4 (Leukemia) cell line; assay: cells; format: cell-based; settings: Table 7, Molt-4; read-out: Cytotoxicity (IC50)
Procedure: as §1, §2

[14] = test system: tumor cells and "normal" cells; assay: Relative activity against tumor cells and normal cells; format: cell-based
Description: In contrast, 100 percent of normal human mammary epithelial cells (HMEC) were viable at the same concentration.

[15] = test system: SK-Mel-28, M-14, M-21, Capan-1, Ovcar-3, Ovcar-4, UCLA-P-3, U-87, U-251 and Molt-4 cell lines; format: cell-based; settings: ten tumor cell lines
Procedure: In other studies, IC50 values were determined for the anti-tumor agents dynemicin A, calicheamicin γ1^I, taxol, vinblastine/vincristine, doxorubicin, actinomycin D and bleomycin sulfate against the SK-Mel-28, M-14, M-21, Capan-1, Ovcar-3, Ovcar-4, UCLA-P-3, U-87, U-251 and Molt-4 cell lines.

[16] = SK-MEL-28, Table 7, SK-Mel-28, read-out: Cytotoxicity (IC50)

O=C(Oc1ccccc1)N1c2ccccc2C23OC24CCCC3C#C/C=C\C#CC14 (stereo not drawn) [Compound 21]
IC50 (cancer cell lines): 5 µM | CC50 (in vitro): 6.3 µM | IC50 (SK-Mel-28 melanoma cells; [16]): 63 µM | IC50 ([1]; Homo sapiens, OVCAR-3, Table 7, Ovcar-3): 0.78 µM | IC50 ([2]; Homo sapiens, HT-29, 72 h): 0.39 µM | IC50 ([3]; Homo sapiens, MCF7, 72 h): 3.1 µM | IC50 ([4]; Homo sapiens, UCLA P-3, Table 7, UCLA-P3): 0.78 µM | IC50 [5]: 3.1 µM | IC50 ([6]; Homo sapiens, CAPAN-1, Table 7, Capan-1, read-out: Cytotoxicity (IC50)): 0.078 µM | IC50 ([7]; Homo sapiens, HL-60, Table 7, HL-60, read-out: Cytotoxicity (IC50)): 0.098 µM | IC50 [8]: 0.098 µM | CC50 [9]: 6.3 µM

O=C(OCCS(=O)(=O)c1ccccc1)N1c2ccccc2C23OC24CCCC3C#C/C=C\C#CC14 (stereo not drawn) [Compound 45]
DNA cleavage (φX174 Form I DNA; pH 8.5, 24 or 48 hours): strong DNA cleavage activity | DNA cleavage potency (φX174 Form I DNA; pH 8.5, 1000 and 100 μM): comparable potencies | IC50 (cancer cell lines): 0.2 µM | IC50 (SK-Mel-28 melanoma cells; SK-MEL-28, SK-Mel-28, read-out: IC50): 6.3 µM | IC50 [10]: 1.6 µM | IC50 ([6]; Homo sapiens, CAPAN-1, Capan-1, read-out: IC50): 1.6 µM | IC50 ([7]; Homo sapiens, HL-60, HL-60, read-out: IC50): 3.9 µM | deaths / weight course ([11]; 12 mg/kg): three of the four animals died | increase in life span over control group ([11]; 25 mg/kg): 175% | time to death ([11]; 50 mg/kg, rapid weight loss): ≤ 8 days | toxicity relative to naturally occurring enediynes [12]: significantly less than naturally occurring enediynes | LD50 ([12]; mouse, in vivo): ~50 mg/kg

CC(COC(=O)N1c2ccccc2C23OC24CCCC3C#CC=CC#CC14)S(=O)(=O)c1ccccc1 (stereo not drawn) [Compound 427]
DNA cleavage (φX174 Form I DNA; 5.0 mM, pH 8.5 and 9.0, 48 hours): greatly reduced in vitro DNA cleaving ability | IC50 [13]: 0.001 µM | CC50 (in vitro): < 100 µM | IC50 (SK-Mel-28 melanoma cells; [16]): 50 µM | IC50 ([1]; Table 7, Ovcar-3): 3.1 µM | IC50 ([2]; 4320 min): 0.78 µM | IC50 ([3]; 4320 min): 25 µM | IC50 ([4]; Table 7, UCLA-P3): 3.1 µM | IC50 [5]: 13 µM | IC50 ([6]; Table 7, Capan-1, read-out: Cytotoxicity (IC50)): 3.1 µM | IC50 ([7]; Table 7, HL-60, read-out: Cytotoxicity (IC50)): 0.78 µM | IC50 [8]: 1.6 µM | CC50 [9]: < 100 µM | selectivity between normal and cancer cells (qualitative) [14]: reduced cytotoxicity of Compound 427 against normal cell lines while maintaining considerable activity against cancer cell lines

bleomycin sulfate [reference compound]
relative potency among agents across cell lines [15]: considerably less active against all the cell lines
